Where two headings read alike, the source gives them in different places. Ends that are not written are not given here.
Legend:
[1] = target: T1, NGF receptors, TrkA and p75 (Rattus norvegicus, UniProt P35739); assay: PC12-Luci c-fos promoter luciferase reporter assay; assay type: cell-based; settings: for Ec50 (luminescence): PC12-Luci cells, 4 h at 37° C.
T1 construct: PC12-Luci cells, which endogenously express the NGF receptors, TrkA and p75; endogenous in cells; host or cells: PC12-Luci (rat pheochromocytoma clone B9 with the human c-fos promoter-luciferase reporter)
T1 sequence (P35739 33-799): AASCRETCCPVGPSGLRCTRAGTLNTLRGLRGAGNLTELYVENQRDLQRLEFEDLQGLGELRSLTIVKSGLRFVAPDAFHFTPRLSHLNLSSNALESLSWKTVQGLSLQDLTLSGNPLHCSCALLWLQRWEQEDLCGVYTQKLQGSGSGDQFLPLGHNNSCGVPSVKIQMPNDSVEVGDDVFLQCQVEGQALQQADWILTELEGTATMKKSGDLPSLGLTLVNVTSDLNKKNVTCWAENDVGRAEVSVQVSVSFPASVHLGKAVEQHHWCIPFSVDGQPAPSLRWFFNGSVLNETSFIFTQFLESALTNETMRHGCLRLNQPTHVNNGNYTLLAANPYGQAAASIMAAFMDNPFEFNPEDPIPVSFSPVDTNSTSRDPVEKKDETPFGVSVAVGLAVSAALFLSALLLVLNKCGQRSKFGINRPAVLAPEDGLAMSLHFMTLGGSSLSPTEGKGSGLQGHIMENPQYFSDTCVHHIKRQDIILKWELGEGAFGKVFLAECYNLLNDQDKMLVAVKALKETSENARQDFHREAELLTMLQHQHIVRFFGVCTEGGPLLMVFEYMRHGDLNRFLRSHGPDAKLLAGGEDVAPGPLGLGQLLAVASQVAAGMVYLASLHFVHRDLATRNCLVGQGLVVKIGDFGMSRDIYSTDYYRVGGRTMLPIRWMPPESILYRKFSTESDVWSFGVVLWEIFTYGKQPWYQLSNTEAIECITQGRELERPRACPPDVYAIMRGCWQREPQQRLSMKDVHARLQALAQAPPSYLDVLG
Description: NGF treatment of rat pheochromocytoma cell line (PC12) results in c-fos mRNA and protein expression (J. Milbrandt, “Nerve growth factor rapidly induces c-fos mRNA in PC12 rat pheochromocytoma cells”, Proc Natl Acad Sci USA. 1986 July; 83(13):4789-93).
Starting from the work of Milbrandt, the Applicant monitored the activation of NFG receptor by using a clone (B9) stably transfected with the human c-fos promoter driving a luciferase reporter gene (PC12-Luci). This clone was used to set up a functional and quantitative assay for the characterization of the activity of NGF1-14.
The experiments were performed in PC12-Luci cells, which endogenously express the NGF receptors, TrkA and p75. Cells were maintained in the following complete culture medium comprising: • DMEM-F12 mixture (DMEM-F12 Glutamax; Life Technologies, GIBCO 10565-018) • 5% fetal bovine serum (FBS, Sigma Aldrich, F7524) • 10% horse serum (HS, Sigma Aldrich, H1138) • 1% penicillin-streptomycin (Life Technologies, GIBCO 15140-122)
For passaging, cells were gently washed with PBS and then incubated with trypsin for 5 min at room temperature or 37° C. Media was added and cells were resuspended (6-8 times).
Experiments were performed in sestuplicate, in black 96 well previously coated with 50 μg/ml collagen type I.
PC-12-Luci cells were seeded at 25000/well in 100 μl complete growth medium. 24h later, cell medium was carefully removed. Cells were then incubated with five concentrations (range 30 ng/ml-300 μg/ml, 1:10 serial dilutions) of NGF1-14 in standard Tyrode buffer with 0.1% BSA (50 μl/well) for 4 h at 37° C. The reference Negermin™ compound (by MimeTech Srl) has been added at 30 μg/ml, as reference. The stock solution of NGF1-14 was resuspended in sterile water, aliquoted and stored at −20° C. The stock solution of Negermin™ compound was resuspended in formulation buffer and stored at −20° C.
After the incubation, the basal level of luminescence was monitored for 30 seconds, by using EnSpire multimode plate reader (PerkinElmer). Then, a Triton-Luciferin mix was added to cells (50 μl/well), in a 1:1 ratio, leading to cell lysis. The obtained luminescence signal was monitored for other 60 seconds. […]
All luminescence values were normalized versus the basal level of luminescence. The response value was calculated as the mean of luminescence of the kinetic recorded.
Data were further analyzed (e.g. calculation of dose-response curves and EC50 values) and graphs plotted using GraphPad Prism (GraphPad Software, Inc.). […]

[2] = system: normal human melanocytes; assay: Tanning action: melanin content by ELISA; assay type: cell-based; settings: cultured for a week, various concentrations
Experimental: The effect of topical application of NGF1-14 on the activation of melanocytes to produce melanin has been assessed.
According to already set up protocols, primary cell cultures of normal human melanocytes were seeded in Petri dishes and cultured for a week, with and without the presence of NGF 1-14 at various concentrations. The melanin content was measured by enzyme immunoassay ELISA.

[3] = system: pro-Collagen I; assay: Pro-Collagen I in dermis by Elisa, single administration test; assay type: in vivo, rat
Experimental: (§1) Since the proteins of extracellular matrix collagen and elastin are involved in wound repair, skin aging and photo-aging, the effect of topical application of NGF1-14 on the levels of these two proteins was also analyzed.
(§2) Pro-Collagen I and Elastin were measured by using commercial Elisa kits, first in a single administration test, followed by a two weeks administration test.
(§3) A similar trend was observed by analyzing the two proteins: an increase of both pro-Collagen I (A) and Elastin (B) was detected in dermis of NGF1-14 treated rats at 0.1% dose, after sonication. The effect was less appreciable without applying the ultrasounds.
(§4) The protective action of NGF1-14 at 0.1% dose (P 0.1%) was evaluated on adult skin exposed to sub-erythematous levels of UV-B (MED=60 mJ/cm^2 twice a day) first in a single administration test (one day) then for three weeks before the treatment. This experimental procedure is also refereed as Photo-AGing model (PAG) since it induces structural and molecular changes occurring in aging.

[4] = pKa by potentiometric pH-metric titration (Sirius T3); assay type: physicochemical; settings: 0.15 M KCl solution (ISA water), 25±1° C.
Experimental: Experimental pKa as well as partition and distribution coefficients (log P and log D) were determined using an automated potentiometric titrator Sirius T3 (Sirius Analytical Instruments Ltd., East Sussex, UK) equipped with an Ag/AgCl double junction reference pH electrode, a Sirius D-PAS spectrometer and a turbidity sensing device. The pH electrode was calibrated titrimetrically in the pH range 1.8-12.2. An overhead stirrer was used and a temperature probe monitored the temperature during the course of the titration. The titration experiments were conducted in 0.15 M KCl solution (ISA water) under an argon atmosphere at a temperature of 25±1° C. All tests were performed using standardized 0.5 M KOH and 0.5 M HCl as titration reagents, for the partition coefficient tests a saturated Octanol in ISA water (5% of ISA water) was used as partition solvent. The pKa is determined by potentiometric method by pH-metric titration. The powder (around 0.5 mg) was dissolved in 1.5 ml of ISA water and the titration was performed in triplicate in the pH range 2.0-12.0. Log P is performed in triplicate by dissolving the powder (around 0.7 mg) in 1 ml of ISA water followed by pH metric titration in three different percentage of Octanol (generally 50%, 60%, 70%). The predicted pKa and the calculated log P for the instrumental model was performed using ACD/Percepta.

[5] = system: TrkA; assay: TrkA phosphorylation by Western Blot; assay type: in vivo, rat; settings: dermis samples, with or without LFS, compared to vehicle controls; FIG. 4
[6] = system: Elastin; assay: Elastin in dermis by Elisa, single administration test; assay type: in vivo, rat
Experimental: as §1, §2, §3, §4

[7] = Skin distribution of NGF1-14 gel preparation, HPLC-UV of epidermis and dermis extracts; assay type: in vivo, rat; settings: 0.1% gel, following LFS, compared to vehicle
Experimental: Distribution experiments were carried out to evaluate the ability of NGF1-14 gel preparation to penetrate the corneal stratus and reach the dermis, also by using sonophoresis-like strategies to facilitate skin penetration.
Tape-striping and ultrasounds were applied on the shaved dorsal area of female adult Sprague Dawley (SD) rats (10-12 months).
Low-Frequency Sonophoresis (LFS) was applied using a Sonics Ultrasonic Processor Model VCX 400 operating at a frequency of 20 KHz (tip displacement of about 2 cm, continuous mode) for 6 or 10 minutes, according to common clinical practices, since a prolonged use of sonophoresis is known to increase skin permeation but also to a considerable thermal damage, which is not appropriate for the use (Ref. International Journal of Health Sciences & Research 477 Vol. 5; Issue: 5; May 2015: A Review on Ultrasound Parameters and Methods of Application in Transdermal Drug Delivery).
Vehicle control and NGF1-14 gel preparation were administered on the skin portion pre-treated with LFS (S) or on shaved/tape striping skin (NS).
Treatment was repeated after two hours, and rats were sacrificed to dissect skin samples 2 hours after the second gel/NGF mimetic application. […]
Quantification of NGF 1-14 was determined by HPLC-UV, on a reverse phase C4 column, eluting with phosphate buffer (pH 7.4) and acetonitrile. […]

[8] = without applying the ultrasounds

Substance	Ec50 (luminescence) [1]	melanin content [2]	pro-Collagen I in dermis ([3]; 0.1% dose, after sonication, FIG. 5A)	Collagen I in dermis [3, 8]	pKa ([4]; read-out: Acid pKa)	pKa ([4]; read-out: Base pKa)	level of basal luminescence ([1]; 30 ng/ml-300 μg/ml, 4 h)	in vitro potency compared with reference standard ([1]; Negermin™ compound added at 30 μg/ml)	phosphorylation levels of TrkA [5]	Elastin in dermis ([6]; 0.1% dose, after sonication, FIG. 5B)	Elastin in dermis [6, 8]	NGF1-14 level in epidermis ([7]; FIG. 3A)	NGF1-14 level in dermis ([7]; FIG. 3B)
rhNGF: human recombinant NGF	1.4 ng/mL	–	–	–	–	–	–	–	–	–	–	–	–
SSSHPIFHRGEFSV [NGF1-14, SSSHPIFHRGEFSV]	290.95 ng/mL	An increase was observed	increase	comparable to the positive control value	4.42 ± 0.05	7.41 ± 0.07	increases the level of basal luminescence in a dose-dependent manner	higher than reference standard Negermin™ compound, but lower than rhNGF	increased phosphorylation levels of TrkA	increase	slight increase	significant increase	significant increase

Reference: patent publication US20210395305A1, “PEPTIDE FOR COSMETIC APPLICATION” (COLOSSEUM COMBINATORIAL CHEMISTRY CENTRE FOR TECHNOLOGY …, priority 2018, published 2021)
